From US20110306563A1, “MACROLACTONE DERIVATIVES, METHOD FOR THE PRODUCTION THEREOF AND USE THEREOF FOR THE TREATMENT OF CANCER” (SANOFI, priority 2008, published 2011)
pIC50: −log10 of the molar value. Where two headings read alike, the source gives them in different places.

Columns and labels:
Assay type in all cases: cell-based
HCT116 = assay: 14C-Thymidine incorporation assay, HCT116; details: Homo sapiens, HCT-116; for IC50: HCT116 (colon), average, read-out: Average IC50 (nM) against HCT116 (colon); for pIC50: HCT116, Colon, 72 h + 24 h 14C-Thymidine, read-out: IC50
Procedure: (§1) Experimental conditions for 14C-Thymidine incorporation assays: • 1) Cells were seeded in 96 well Cytostar microplates in 180 μl of culture medium (DMEM supplemented with 10% Fetal Calf Serum). • Seeding density are 2500 cells/well for HCT116, 5000 cells/well for HT29 and PC3 and 10000 cells/well for MDA-MB231, MDA-A1, H460 and B16F10. • 2) The microplates were incubated 4 h at 37° C. with 5% CO2 • 3) 10 μl of test compound were added • 4) The microplates were incubated 72 h at 37° C. with 5% CO2 • 5) 10 μl of 14C-Thymidine at 10 μCi/ml was added • 6) The microplates were incubated 24 h at 37° C. with 5% CO2 • 7) The radioactivity incorporated in the cells was measured with a Microbeta Trilux radioactivity scintillation counter (Wallac).

HL60 = assay: ATP viability assay (CellTiterGlo), HL60; details: Homo sapiens, HL-60; HL60, Leukemia; 96 h incubation
Procedure: (§2) Experimental conditions for ATP viability assays: • 1) Cells were seeded in 96 well microplates in 135 μl of culture medium. • Culture medium used were RPMI supplemented with 10% Fetal Calf Serum for HL60 and CEM cell lines and DMEM with 10% FCS for Normal Human Dermal Fibroblasts (NHDF). Seeding density was 25000 cells/well for HL60 and CEM and 7500 cells/well for NHDF. • 2) The microplates were incubated 4 h at 37° C. with 5% CO2. • 3) 15 μl of test compound were added • 4) The microplates were incubated 96 h. • 5) 100 μl of a mix of lysing reagent and luciferase/luciferin was added (CellTiterGlo, Promega). The luminescence emitted was measured with a Microbeta Trilux counter (Wallac).

CEM = assay: ATP viability assay (CellTiterGlo), CEM; details: Homo sapiens, CCRF-CEM, Leukemia, 96 h incubation
Procedure: as §2

HT29 = assay: 14C-Thymidine incorporation assay, HT29; details: Homo sapiens, HT-29; HT29, Colon; 72 h + 24 h 14C-Thymidine
Procedure: as §1

H460 = assay: 14C-Thymidine incorporation assay, H460; details: Homo sapiens, NCI-H460; H460, Lung; 72 h + 24 h 14C-Thymidine
Procedure: as §1

B16F10 = assay: 14C-Thymidine incorporation assay, B16F10; details: Mus musculus, B16-F10; B16F10, Melanoma; 72 h + 24 h 14C-Thymidine
Procedure: as §1

MDA-A1 = assay: 14C-Thymidine incorporation assay, MDA-A1; details: MDA-A1, Breast; 72 h + 24 h 14C-Thymidine
Procedure: as §1

MDA-MB231 = assay: 14C-Thymidine incorporation assay, MDA-MB231; details: Homo sapiens, MDA-MB-231; MDA-MB231, Breast; 72 h + 24 h 14C-Thymidine
Procedure: as §1

PC3 = assay: 14C-Thymidine incorporation assay, PC3; details: Homo sapiens, PC-3; PC3, Prostate; 72 h + 24 h 14C-Thymidine
Procedure: as §1

[1] = test system: Normal Human Dermal Fibroblasts (NHDF); assay: ATP viability assay (CellTiterGlo), NHDF; details: 96 h incubation
Procedure: as §2

COC1CC2OC2(C)C(=O)N(C)C(C(C)C)C(=O)NC(Cc2cc(Cl)c(O)c(Cl)c2)C(=O)NC(C(C)(C)O)C(=O)OC(c2ccccc2)C(C)/C=C/C=C/1C (stereo not drawn) [V]
IC50 (HCT116): 0.673 nM

CCC(C)C1C(=O)NC(Cc2cc(Cl)c(O)c(Cl)c2)C(=O)NC(C(C)(C)O)C(=O)OC(c2ccccc2)C(C)/C=C/C=C(\C)C(OC)CC2OC2(C)C(=O)N1C (stereo not drawn) [II]
pIC50 (HL60): 7.82 to 8.02
pIC50 (CEM): 7.98 to 8.15
pIC50 (HCT116): 8.25 to 9.22
pIC50 (HT29): 7.90 to 8.52
pIC50 (H460): 7.98 to 8.04
pIC50 (B16F10): 7.60 to 8.35
pIC50 (MDA-A1): 7.68 to 8.85
pIC50 (MDA-MB231): 7.77 to 8.32
pIC50 (PC3): 7.80 to 8.36
pIC50 [1]: 8.02 to 8.21

CCC(C)C1C(=O)NC(Cc2ccc(O)c(Br)c2)C(=O)NC(C(C)(C)O)C(=O)OC(c2ccccc2)C(C)/C=C/C=C(\C)C(OC)C/C=C(/C)C(=O)N1C (stereo not drawn) [VIII]
IC50 (HCT116): 2.1 nM

CCC(C)C1C(=O)NC(Cc2ccc(O)c(Cl)c2)C(=O)NC(C(C)(C)O)C(=O)OC(c2ccccc2)C(C)/C=C/C=C(\C)C(OC)CC2OC2(C)C(=O)N1C (stereo not drawn) [III]
IC50 (HCT116): 0.326 nM

CCC(C)C1C(=O)NC(Cc2cc(Cl)c(OC)c(Cl)c2)C(=O)NC(C(C)(C)O)C(=O)OC(c2ccccc2)C(C)/C=C/C=C(\C)C(OC)CC2OC2(C)C(=O)N1C (stereo not drawn) [IX]
pIC50 (HCT116): 8.66 to 8.68
pIC50 (MDA-A1): 7.85 to 8.02
pIC50 (MDA-MB231): 8.08 to 8.29

CCC(C)C1C(=O)NC(Cc2cc(Cl)c(O)c(Br)c2)C(=O)NC(C(C)(C)O)C(=O)OC(c2ccccc2)C(C)/C=C/C=C(\C)C(OC)CC2OC2(C)C(=O)N1C (stereo not drawn) [VI]
IC50 (HCT116): 0.393 nM

CCC(C)C1C(=O)NC(Cc2ccc(O)c(Br)c2)C(=O)NC(C(C)(C)O)C(=O)OC(c2ccccc2)C(C)/C=C/C=C(\C)C(OC)CC2OC2(C)C(=O)N1C (stereo not drawn) [VII]
IC50 (HCT116): 0.268 nM
